# ChEMBL document CHEMBL1201862, “PubChem BioAssay data set” (2004)
# Calls of active or inactive are those of the source.
# Experiments:
# [1] = target: NS3 (Hepatitis C virus, UniProt A3EZJ3); test: PubChem AID 2173; set-up: species or system Hepacivirus hominis
# [2] = test system: Vero; test: cells; assay type: functional, cell-based; conditions: Chlorocebus sabaeus
# [3] = target: Paired box protein Pax-8 (Homo sapiens, UniProt Q06710); test: PAX8 transcriptional activity inhibition in RMG-I – RMG-I cells, luciferase, cherry-pick, dose response (AID 687027); assay type: functional, cell-based;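 note: luciferase reporter driven by Pax8 target thyroperoxidase promoter measured by SteadyGlo luminescence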
# [4] = test system: Vero; test: cells; assay type: functional; conditions: Chlorocebus sabaeus
# [5] = target: T1, Estrogen receptor (Homo sapiens, UniProt P03372);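 note: potency for inhibiting coactivator peptide recruitment to the receptor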
# T1 sequence (P03372 whole entry): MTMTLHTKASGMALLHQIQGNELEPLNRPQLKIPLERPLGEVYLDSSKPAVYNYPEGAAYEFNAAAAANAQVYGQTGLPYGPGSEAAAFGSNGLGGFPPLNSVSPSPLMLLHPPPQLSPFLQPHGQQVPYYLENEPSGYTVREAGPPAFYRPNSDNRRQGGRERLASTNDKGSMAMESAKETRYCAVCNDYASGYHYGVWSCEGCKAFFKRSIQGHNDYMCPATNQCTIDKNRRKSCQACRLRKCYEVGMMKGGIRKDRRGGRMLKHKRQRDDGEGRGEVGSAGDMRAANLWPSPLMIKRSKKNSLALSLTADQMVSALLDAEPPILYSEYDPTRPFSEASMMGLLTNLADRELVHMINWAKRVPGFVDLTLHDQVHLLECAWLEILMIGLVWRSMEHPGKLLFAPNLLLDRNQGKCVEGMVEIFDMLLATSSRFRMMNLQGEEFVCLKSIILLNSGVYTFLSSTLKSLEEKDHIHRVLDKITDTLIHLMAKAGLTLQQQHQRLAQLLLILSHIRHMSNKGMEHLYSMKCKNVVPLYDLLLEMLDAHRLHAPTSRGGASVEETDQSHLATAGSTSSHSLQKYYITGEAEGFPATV
# [6] = target: Nucleotide-binding oligomerization domain-containing protein 2 (Homo sapiens, UniProt Q9HC29); test: inhibition of NOD2-driven NF-kB reporter – cell-based, luminescence, uHTS, HEK293 (AID 1566); assay type: functional
# Nucleotide-binding oligomerization domain-containing protein 2, sequence (Q9HC29 whole entry, the tested form may be a part): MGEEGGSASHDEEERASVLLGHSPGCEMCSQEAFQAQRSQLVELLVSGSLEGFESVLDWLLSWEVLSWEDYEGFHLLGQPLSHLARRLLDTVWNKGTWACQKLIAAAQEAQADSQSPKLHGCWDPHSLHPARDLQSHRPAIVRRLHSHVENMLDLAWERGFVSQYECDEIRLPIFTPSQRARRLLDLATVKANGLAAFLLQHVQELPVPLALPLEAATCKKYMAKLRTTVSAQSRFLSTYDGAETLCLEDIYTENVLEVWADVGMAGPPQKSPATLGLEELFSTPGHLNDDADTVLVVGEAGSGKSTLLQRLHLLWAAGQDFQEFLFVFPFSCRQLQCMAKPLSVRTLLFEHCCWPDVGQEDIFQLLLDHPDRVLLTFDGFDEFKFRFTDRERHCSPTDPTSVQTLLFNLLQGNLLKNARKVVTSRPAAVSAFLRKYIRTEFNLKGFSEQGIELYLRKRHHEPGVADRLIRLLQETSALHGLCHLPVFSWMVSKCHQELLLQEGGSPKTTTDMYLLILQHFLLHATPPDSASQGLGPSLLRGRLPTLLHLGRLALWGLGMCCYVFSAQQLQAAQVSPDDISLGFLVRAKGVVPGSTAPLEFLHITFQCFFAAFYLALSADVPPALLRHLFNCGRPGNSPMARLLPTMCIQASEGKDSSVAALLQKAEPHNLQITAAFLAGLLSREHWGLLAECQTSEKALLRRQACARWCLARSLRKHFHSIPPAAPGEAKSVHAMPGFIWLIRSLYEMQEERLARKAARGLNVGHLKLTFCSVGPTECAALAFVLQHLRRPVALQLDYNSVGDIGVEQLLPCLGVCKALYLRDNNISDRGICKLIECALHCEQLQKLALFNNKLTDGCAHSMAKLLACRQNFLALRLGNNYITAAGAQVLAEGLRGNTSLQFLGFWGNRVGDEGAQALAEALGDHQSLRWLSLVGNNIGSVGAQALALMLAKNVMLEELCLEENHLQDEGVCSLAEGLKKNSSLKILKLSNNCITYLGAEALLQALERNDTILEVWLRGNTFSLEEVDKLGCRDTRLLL
# [7] = test system: HEK293; test: inhibition of NOD1-driven NF-kB reporter – cell-based, luminescence, uHTS, primary screen (AID 1578); assay type: functional; conditions: Homo sapiens
# [8] = target: Prothrombin (Homo sapiens, UniProt P00734); test: Thrombin 1536 HTS Dose Response Confirmation. [Related pubchem assays: 1046 (Thrombin 1536 HTS; hits were confirmed in this assay)]; assay type: functional
# [9] = test system: HEK293; test: NOD2 signaling inhibitors in MDP-stimulated cells, cell-based, uHTS, luminescence (AID 2001); assay type: functional; conditions: Homo sapiens
# [10] = test system: HEK293; test: cells; assay type: functional, cell-based; conditions: Homo sapiens
# [11] = test system: HEK293; test: cells; assay type: functional, cell-based; conditions: Homo sapiens; remark: listed apart in the source
# [12] = test system: Streptococcus sp. 'group A'; test: Streptococcus pyogenes SK(-)GAS viability under kanamycin – luminescence, BacTiterGlo, confirmation, counter-screen for streptokinase expression inhibitor project, dose response (AID 1900); assay type: functional, organism-based
# [13] = test system: Streptococcus; test: GAS UMAA2166 growth inhibition – luminescence, BacTiterGlo, counter-screen for streptokinase expression inhibitor project, dose response (AID 1915); assay type: functional, organism-based;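 note: potency for reduction of bacterial viability or growth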
# [14] = test system: HEK293; test: cells; assay type: functional, cell-based; conditions: Homo sapiens; remark: listed apart in the source
# [15] = target: T2, Streptokinase A (Streptococcus pyogenes serotype M1, UniProt P10520); test: viability-normalized secreted streptokinase activity reduction – plasminogen activation absorbance, OD405, dose response (AID 1914); assay type: functional, Streptococcus pyogenes M1 GAS;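 note: secreted streptokinase activity via plasminogen activation per viability signal from cell pellet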
# T2 sequence (P10520 whole entry): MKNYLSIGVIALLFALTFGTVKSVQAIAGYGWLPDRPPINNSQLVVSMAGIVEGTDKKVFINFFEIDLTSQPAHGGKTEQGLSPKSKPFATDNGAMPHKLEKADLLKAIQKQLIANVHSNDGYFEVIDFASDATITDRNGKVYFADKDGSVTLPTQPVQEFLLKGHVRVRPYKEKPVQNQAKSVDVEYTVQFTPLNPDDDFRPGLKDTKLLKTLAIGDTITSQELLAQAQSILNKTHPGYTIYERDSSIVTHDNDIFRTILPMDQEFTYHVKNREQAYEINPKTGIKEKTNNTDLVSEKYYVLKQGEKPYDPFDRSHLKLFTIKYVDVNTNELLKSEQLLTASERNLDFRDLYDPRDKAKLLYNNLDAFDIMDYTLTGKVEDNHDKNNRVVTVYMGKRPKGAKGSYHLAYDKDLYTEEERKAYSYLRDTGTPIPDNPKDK
# [16] = target: T3, Bcl-2-related protein A1 (Mus musculus, UniProt Q07440); assay type: functional;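 note: confirmatory dose–response counterscreen on Bfl-1, used to check hits from a UBC13 polyubiquitin inhibitor campaign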
# T3 sequence (Q07440 whole entry): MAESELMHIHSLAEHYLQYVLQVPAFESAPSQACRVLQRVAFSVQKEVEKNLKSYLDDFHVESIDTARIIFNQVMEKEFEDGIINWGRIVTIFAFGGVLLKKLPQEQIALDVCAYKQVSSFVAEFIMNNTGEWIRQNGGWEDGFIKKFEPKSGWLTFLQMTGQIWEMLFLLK
# [17] = target: T4, Ubiquitin-conjugating enzyme E2 N (Homo sapiens, UniProt P61088); assay type: functional;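 note: Dose-response confirmation in a TR-FRET assay detecting UBC13-driven polyubiquitin chain formation, inhibition measured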
# T4 sequence (P61088 whole entry): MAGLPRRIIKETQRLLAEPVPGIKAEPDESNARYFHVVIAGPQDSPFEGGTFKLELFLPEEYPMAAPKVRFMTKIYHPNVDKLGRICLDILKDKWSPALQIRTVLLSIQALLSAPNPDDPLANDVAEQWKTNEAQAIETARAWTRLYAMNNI
# [18] = target: T5, fMet-Leu-Phe receptor (Homo sapiens, UniProt P21462); test: formyl peptide receptor binders – dose response (AID 519); assay type: functional
# T5 sequence (P21462 whole entry): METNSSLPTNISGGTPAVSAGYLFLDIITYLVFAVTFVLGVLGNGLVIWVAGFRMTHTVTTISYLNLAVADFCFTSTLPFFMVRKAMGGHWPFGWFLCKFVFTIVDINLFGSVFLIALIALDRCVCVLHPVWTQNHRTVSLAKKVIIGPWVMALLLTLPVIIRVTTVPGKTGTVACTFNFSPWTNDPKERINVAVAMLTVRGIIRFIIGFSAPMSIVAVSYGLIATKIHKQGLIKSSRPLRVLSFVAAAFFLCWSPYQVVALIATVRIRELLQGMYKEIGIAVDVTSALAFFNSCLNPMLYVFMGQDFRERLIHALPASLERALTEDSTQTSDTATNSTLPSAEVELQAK
# [19] = Luminescence Cell-Based Dose Retest to Confirm Inhibitors of Cancer Stem Cells. [Related pubchem assays (depositor defined):AID2717, AID2721]; assay type: functional; conditions: Homo sapiens
# [20] = viability loss of HMLE_sh_eGFP cells – cell-based, luminescence, counter-screen for HMLE_sh_ECad selective toxicity project, dose response (AID 463074); assay type: functional, Homo sapiens;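 note: HMLE human mammary epithelial cells expressing control shRNA against eGFP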
# [21] = target: Peroxisome proliferator-activated receptor gamma/Nuclear receptor coactivator 1 (Homo sapiens, UniProt P37231); assay type: functional;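 note: agonist potency as compounds enhance coactivator SRC-1 recruitment to PPARgamma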
# [22] = target: Peroxisome proliferator-activated receptor gamma/Nuclear receptor coactivator 3 (Homo sapiens, UniProt P37231); assay type: functional;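 note: agonist potency for raising coactivator recruitment to the receptor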
# Peroxisome proliferator-activated receptor gamma/Nuclear receptor coactivator 3, sequence (P37231 whole entry): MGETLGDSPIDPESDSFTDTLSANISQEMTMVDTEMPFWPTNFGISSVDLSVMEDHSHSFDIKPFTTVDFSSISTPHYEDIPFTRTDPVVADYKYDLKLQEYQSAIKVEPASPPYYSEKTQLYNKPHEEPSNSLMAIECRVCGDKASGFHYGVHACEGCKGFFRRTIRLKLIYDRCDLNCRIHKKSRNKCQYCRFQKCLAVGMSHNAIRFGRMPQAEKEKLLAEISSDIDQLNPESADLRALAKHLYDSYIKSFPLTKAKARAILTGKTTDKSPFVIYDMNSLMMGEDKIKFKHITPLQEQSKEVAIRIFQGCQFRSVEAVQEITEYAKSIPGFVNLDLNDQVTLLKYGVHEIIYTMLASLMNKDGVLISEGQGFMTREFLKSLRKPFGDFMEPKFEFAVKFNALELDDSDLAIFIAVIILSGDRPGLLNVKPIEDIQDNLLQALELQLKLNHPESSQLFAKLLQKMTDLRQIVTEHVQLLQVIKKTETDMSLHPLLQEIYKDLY
# Peroxisome proliferator-activated receptor gamma/Nuclear receptor coactivator 3, sequence (Q9Y6Q9 whole entry, further chain): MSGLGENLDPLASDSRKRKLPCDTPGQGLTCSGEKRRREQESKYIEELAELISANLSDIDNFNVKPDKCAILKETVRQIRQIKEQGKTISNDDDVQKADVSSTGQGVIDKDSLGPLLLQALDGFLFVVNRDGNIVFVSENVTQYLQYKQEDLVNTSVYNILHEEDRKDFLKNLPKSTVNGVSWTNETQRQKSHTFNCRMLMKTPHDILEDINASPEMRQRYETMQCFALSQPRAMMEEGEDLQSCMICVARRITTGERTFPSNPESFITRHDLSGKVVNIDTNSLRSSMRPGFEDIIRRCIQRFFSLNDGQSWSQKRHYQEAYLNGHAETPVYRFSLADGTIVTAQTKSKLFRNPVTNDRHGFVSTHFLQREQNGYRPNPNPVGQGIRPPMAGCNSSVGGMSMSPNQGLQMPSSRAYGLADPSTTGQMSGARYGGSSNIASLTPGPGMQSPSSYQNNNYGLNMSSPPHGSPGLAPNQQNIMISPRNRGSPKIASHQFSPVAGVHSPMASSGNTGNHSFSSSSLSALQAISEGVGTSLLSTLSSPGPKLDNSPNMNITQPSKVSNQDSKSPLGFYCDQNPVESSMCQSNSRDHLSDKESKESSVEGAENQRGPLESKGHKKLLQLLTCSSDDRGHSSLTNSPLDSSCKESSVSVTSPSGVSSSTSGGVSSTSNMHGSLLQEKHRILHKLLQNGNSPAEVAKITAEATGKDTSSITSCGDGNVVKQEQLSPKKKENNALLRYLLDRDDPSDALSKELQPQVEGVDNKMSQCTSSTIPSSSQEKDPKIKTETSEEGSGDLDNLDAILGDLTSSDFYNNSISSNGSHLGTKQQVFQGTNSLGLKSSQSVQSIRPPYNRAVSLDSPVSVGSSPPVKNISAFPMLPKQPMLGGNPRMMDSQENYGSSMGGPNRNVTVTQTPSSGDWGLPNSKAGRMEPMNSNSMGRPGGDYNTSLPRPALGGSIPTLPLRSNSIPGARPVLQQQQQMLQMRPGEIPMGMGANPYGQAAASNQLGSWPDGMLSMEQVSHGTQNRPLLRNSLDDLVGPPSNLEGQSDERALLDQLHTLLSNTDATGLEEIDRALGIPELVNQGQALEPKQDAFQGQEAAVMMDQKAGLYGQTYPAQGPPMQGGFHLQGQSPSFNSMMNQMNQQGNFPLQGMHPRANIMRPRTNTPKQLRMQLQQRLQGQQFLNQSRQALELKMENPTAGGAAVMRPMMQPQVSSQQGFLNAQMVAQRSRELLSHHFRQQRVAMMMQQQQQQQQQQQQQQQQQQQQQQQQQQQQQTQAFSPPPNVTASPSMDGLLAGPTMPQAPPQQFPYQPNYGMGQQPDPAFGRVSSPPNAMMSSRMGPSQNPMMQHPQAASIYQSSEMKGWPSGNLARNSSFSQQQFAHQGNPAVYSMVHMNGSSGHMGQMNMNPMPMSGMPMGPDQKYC
# [23] = target: Peroxisome proliferator-activated receptor gamma/Nuclear receptor coactivator 2 (Homo sapiens, UniProt P37231); assay type: functional;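 note: agonist potency for raising coactivator recruitment to the receptor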
# [24] = target: T6, X-box-binding protein 1 (Homo sapiens, UniProt P17861); assay type: functional, Cricetulus griseus;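 note: confirmatory dose-response counter-screen serving a CHOP assay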
# T6 sequence (P17861 whole entry): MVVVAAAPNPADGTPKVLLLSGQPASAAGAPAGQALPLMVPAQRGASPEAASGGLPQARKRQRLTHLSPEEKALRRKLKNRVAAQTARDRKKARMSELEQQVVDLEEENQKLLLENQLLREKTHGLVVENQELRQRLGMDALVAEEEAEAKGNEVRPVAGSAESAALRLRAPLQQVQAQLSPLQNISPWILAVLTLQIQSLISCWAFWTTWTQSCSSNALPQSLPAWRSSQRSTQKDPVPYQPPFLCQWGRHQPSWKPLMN
# [25] = target: T7, Estrogen receptor beta (Homo sapiens, UniProt Q92731); test: blockers of SRC-3 recruitment to ERβ – biochemical, ELISA, streptavidin-HRP readout, orthogonal assay, confirmation (AID 1060)
# T7 sequence (Q92731 whole entry, the tested form may be a part): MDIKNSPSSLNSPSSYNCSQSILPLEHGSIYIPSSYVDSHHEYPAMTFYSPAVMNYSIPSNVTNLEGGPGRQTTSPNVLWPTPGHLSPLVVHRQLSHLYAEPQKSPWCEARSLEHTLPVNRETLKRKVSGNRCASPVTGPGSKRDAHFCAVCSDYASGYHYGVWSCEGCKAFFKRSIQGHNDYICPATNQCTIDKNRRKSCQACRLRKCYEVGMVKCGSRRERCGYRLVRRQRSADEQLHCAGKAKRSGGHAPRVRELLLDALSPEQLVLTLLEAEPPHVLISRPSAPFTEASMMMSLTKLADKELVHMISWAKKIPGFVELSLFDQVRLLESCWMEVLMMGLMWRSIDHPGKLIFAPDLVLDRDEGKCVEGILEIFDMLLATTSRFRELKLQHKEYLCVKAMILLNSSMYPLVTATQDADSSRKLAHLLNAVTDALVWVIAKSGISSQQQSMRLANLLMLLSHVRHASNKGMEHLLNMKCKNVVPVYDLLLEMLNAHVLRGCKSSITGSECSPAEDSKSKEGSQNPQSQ
# [26] = target: T8, Carboxy-terminal domain RNA polymerase II polypeptide A small phosphatase 1 (Homo sapiens, UniProt Q9GZU7); test: CTDSP1 inhibitors, concentration-response, biochemical, absorbance readout, ultra-high-throughput screen actives (AID 540297); assay type: functional
# T8 sequence (Q9GZU7 whole entry): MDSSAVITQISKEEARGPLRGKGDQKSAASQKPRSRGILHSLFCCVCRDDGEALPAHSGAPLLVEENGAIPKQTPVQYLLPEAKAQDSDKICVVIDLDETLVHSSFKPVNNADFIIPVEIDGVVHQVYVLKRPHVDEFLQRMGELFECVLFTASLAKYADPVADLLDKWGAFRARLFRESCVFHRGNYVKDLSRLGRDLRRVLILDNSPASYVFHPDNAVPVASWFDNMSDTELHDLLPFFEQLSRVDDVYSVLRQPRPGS
# [27] = target: T7, Estrogen receptor beta
# [28] = test system: HeLa; test: viability loss in HeLa cells – cell-based, 24 h, cherry-picked samples, cytotoxicity control, dose response (AID 504726); assay type: functional; conditions: Homo sapiens;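 note: potency for cytotoxicity as loss of luminescence signal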
# [29] = target: Alkaline phosphatase, placental type (Homo sapiens, UniProt P05187); test: human placental alkaline phosphatase inhibition – biochemical, luminescence, confirmation (AID 1512); assay type: functional
# Alkaline phosphatase, placental type, sequence (P05187 whole entry): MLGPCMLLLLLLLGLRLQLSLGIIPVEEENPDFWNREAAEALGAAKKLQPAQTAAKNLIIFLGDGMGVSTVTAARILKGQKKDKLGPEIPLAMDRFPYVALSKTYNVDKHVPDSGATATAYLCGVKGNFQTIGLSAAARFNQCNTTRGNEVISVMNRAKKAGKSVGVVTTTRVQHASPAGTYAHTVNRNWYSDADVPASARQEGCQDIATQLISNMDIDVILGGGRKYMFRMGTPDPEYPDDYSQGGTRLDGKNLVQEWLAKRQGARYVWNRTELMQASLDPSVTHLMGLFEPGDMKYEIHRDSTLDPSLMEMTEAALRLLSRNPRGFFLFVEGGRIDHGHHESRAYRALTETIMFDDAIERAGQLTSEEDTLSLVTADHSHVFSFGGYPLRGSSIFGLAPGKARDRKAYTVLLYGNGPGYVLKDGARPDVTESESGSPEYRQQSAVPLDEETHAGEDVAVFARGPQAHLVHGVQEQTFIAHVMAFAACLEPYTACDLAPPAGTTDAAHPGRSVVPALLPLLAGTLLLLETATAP
# [30] = target: T9, Alkaline phosphatase, tissue-nonspecific isozyme (Homo sapiens, UniProt P05186); test: potency against alkaline phosphatase TNAP – biochemical, luminescent, dose response, SAR follow-up (AID 1056)
# T9 sequence (P05186 whole entry): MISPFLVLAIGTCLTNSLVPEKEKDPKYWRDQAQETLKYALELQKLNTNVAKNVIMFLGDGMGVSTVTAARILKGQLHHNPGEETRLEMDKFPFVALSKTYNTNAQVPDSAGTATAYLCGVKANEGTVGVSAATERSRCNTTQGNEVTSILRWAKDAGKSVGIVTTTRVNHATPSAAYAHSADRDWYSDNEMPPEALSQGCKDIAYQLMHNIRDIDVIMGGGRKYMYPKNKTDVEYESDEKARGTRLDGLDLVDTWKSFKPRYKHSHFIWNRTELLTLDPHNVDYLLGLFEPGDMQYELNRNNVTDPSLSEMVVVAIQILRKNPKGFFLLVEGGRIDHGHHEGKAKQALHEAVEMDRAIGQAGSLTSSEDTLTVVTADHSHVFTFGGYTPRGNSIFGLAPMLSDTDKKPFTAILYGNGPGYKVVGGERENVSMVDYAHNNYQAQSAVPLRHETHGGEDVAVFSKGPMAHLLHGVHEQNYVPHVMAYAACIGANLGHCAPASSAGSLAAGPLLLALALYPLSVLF
# NS3, sequence (A3EZJ3 whole entry): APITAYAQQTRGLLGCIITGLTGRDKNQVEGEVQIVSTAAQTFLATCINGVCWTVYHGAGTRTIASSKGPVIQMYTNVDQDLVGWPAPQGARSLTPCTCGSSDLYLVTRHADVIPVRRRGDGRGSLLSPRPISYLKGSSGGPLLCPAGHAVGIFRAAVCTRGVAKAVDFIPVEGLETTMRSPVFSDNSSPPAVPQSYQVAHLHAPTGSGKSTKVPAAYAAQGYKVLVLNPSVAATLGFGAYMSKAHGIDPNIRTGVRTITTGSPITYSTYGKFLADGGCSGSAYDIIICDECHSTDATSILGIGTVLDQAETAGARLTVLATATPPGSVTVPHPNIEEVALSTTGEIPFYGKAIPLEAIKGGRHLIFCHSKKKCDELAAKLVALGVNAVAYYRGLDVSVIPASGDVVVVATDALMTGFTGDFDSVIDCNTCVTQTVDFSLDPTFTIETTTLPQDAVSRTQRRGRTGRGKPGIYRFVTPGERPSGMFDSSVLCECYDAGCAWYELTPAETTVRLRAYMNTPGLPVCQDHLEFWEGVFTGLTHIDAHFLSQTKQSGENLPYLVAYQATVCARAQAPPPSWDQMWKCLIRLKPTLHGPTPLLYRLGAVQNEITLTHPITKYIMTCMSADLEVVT
structure (smiles),measurement,setting,value
CNc1ccc(Br)cc(C(=O)/C=C/c2cc(OC)ccc2OC)c1=O,IC50,[1],11.3 µM (not active)
same,IC50,[2],7.29 µM (active)
same,AC50,[3],7.83 µM (active)
same,CC50,[4],23.1 µM (active)
O=C(C1=C(O)C(=O)N(Cc2ccco2)C1c1cccc(Cl)c1)c1ccc2c(c1)OCCO2 (stereo not drawn),IC50,[1],4.61 µM (active)
O=C(COc1ccccc1)Nc1ccc(Cl)c(-c2nc3ncccc3o2)c1,IC50,[5],> 50 µM (not active)
Cc1nc(SCC(=O)N2CCc3ccccc3C2)c2c(C)c(C)sc2n1,EC50,[6],9.64 µM (active)
same,EC50,[7],6.12 µM (active)
same,IC50,[8],> 50 µM (not active)
same,IC50,[9],9.12 µM (inactive)
same,IC50,[10],> 20 µM (inactive)
CCCCc1nc(N2CCN(C(=O)c3ccco3)CC2)c(C#N)c2c1CCCC2,EC50,[6],7.59 µM (active)
same,EC50,[7],10.1 µM (active)
same,IC50,[11],15.6 µM (active)
same,IC50,[9],12.2 µM (inactive)
same,EC50,[12],7.4 µM (active)
same,IC50,[10],> 20 µM (inactive)
same,EC50,[13],14.4 µM (active)
same,IC50,[14],11.9 µM (active)
same,EC50,[15],8.54 µM (active)
Cc1ccc(N(C(=O)c2snc(C(N)=O)c2N)C(C(=O)NCC2CCCO2)c2c[nH]c3ccccc23)cc1 (stereo not drawn),IC50,[16],> 20 µM (inactive)
same,IC50,[17],12.1 µM (active)
COc1ccc(-c2nc(-c3ccc(NC(=O)c4ccc(Br)o4)cc3)no2)cc1OC,Ki,[18],> 66.7 µM (inactive)
same,AC50,[19],2.21 µM (active)
same,AC50,[20],22.8 µM (active)
same,EC50,[21],> 79.4 µM (not active)
same,EC50,[22],> 79.4 µM (not active)
same,EC50,[23],49.2 µM (not active)
same,Absolute IC50 (XBP1),[24],10 µM
Cc1ccc(C)c(N2CCN(C(=O)C34CC5CC(C3)CC(n3nnc(C)n3)(C5)C4)CC2)c1,EC50,[6],5.6 µM (active)
same,EC50,[7],7.6 µM (active)
same,IC50,[11],13.1 µM (active)
same,IC50,[9],4.61 µM (active)
same,IC50,[10],> 20 µM (inactive)
same,IC50,[14],6.27 µM (active)
COc1cc(NC(=O)CSc2nc3ccccc3c(=O)n2C)ccc1NC(=O)c1ccco1,IC50,[5],32.5 µM (not active)
O=C(Nc1sc2c(c1C(=O)O)CCC2)c1ccccc1,IC50,[25],> 109 µM (not active)
same,IC50,[26],12.1 µM (active)
same,IC50,[27],6.88 µM (active)
CSCCOC(=O)c1[nH]c2c(c1C)C(=O)CC(c1ccco1)C2 (stereo not drawn),IC50,[27],> 50 µM (not active)
same,IC50,[5],> 50 µM (not active)
Cn1c(=O)c2c(nc(SCC(=O)NCc3ccc4c(c3)OCO4)n2Cc2ccc(Cl)cc2)n(C)c1=O,AC50,[28],64.6 µM (active)
Cc1cc(C)nc(SCC(=O)c2ccc(Cl)cc2Cl)n1,IC50,[29],> 100 µM (inactive)
same,IC50,[30],> 100 µM (inactive)
Cc1ccc(-c2nnc(SCC(=O)c3ccc(O)c(O)c3)n2C)cc1,IC50,[29],11.7 µM (active)
same,IC50,[30],> 100 µM (inactive)
Cc1cc(=O)[nH]c(-n2[nH]c(C)cc2=O)n1,IC50,[29],> 100 µM (inactive)
COc1cc(/C=N/NC(=O)Nc2ccccc2)ccc1OCCOc1ccccc1C,Absolute IC50 (XBP1),[24],10 µM
